Laboratory results taken from patent US20240360151A1 (SANOFI, priority 2023, published 2024).

Each compound was assayed against T1, NLRP3 inflammasome (Homo sapiens, UniProt Q96P20) (assay: IL-1β secretion assay (NLRP3 IC50) in LPS-primed, nigericin-activated THP-1 cells, HTRF). Details: monocytic THP-1 cells; LPS 10 ng/mL 3 h priming, then compound + nigericin 10 μM 2 h; relative IC50, 10 concentrations, geometric mean.
T1 construct: endogenous in cells; host or cells: THP-1 monocytic cells
T1 sequence (Q96P20 whole entry): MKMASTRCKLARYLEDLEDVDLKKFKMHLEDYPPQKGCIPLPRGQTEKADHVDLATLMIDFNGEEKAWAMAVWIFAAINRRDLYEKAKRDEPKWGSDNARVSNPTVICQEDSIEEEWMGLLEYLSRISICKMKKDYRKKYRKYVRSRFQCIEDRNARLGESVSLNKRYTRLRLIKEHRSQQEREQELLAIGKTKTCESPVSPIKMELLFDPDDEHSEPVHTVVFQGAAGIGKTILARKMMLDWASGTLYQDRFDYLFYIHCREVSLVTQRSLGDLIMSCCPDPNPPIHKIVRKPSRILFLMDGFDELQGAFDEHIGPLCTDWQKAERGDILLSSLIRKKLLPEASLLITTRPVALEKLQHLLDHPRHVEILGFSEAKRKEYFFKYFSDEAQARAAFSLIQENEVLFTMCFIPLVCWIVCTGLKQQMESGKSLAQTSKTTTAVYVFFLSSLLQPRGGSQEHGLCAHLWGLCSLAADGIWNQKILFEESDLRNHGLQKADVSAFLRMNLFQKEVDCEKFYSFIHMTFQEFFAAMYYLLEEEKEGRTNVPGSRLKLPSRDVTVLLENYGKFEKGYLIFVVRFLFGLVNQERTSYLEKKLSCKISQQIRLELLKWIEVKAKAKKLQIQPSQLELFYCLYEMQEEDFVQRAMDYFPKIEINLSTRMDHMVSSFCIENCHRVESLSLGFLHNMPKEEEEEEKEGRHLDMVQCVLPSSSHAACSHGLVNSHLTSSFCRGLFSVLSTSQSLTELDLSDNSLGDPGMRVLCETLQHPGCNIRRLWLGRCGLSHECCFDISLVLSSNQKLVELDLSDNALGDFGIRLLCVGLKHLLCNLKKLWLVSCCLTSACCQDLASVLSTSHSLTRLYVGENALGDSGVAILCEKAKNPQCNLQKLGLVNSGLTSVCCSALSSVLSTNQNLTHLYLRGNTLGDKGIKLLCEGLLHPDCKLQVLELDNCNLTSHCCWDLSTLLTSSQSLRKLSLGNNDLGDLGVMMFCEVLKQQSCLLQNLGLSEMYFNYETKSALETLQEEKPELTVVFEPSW
Format: cell-based
Experimental: Monocytic THP-1 cells were maintained in RPMI 1640 media (Gibco 21875)+10% FBS, (Gibco 10500)+1% penicillin/streptomycin (Gibco 15140-122). Cells were then plated at 40,000 cells per well in 384-well cell culture plates (CoRNning 3542) and maintained with RPMI1640 (Gibco 11835)+5% FBS (Gibco 10500). Activation of the NLRP3 inflammasome requires both an NF-kB-dependent priming step and the addition of a NLRP3 activator. The priming step was induced by LPS (10 ng/mL, InvivoGen ref tlrl-3pelps) for 3 h at 37° C., then compound, in a 1:3 serial dilution series in DMSO (final concentration DMSO 0.1%), and the activator nigericin (Sigma Aldrich, ref: SML1779) 10 μM (final concentration) were added to the cells and co-incubated for 2 hours. 16 μL supernatant was removed, and IL-1β levels were monitored using an HTRF assay (Human IL1b Kits HTRF Cisbio ref: 62HILBPEH) according to manufacturers' instructions.
Data were expressed as percentage of inhibition (I %) as compared to a maximum signal control containing no small molecule (I %=0%) according to the formula: 1%=(1−((Sample−Min))/((Max−Min)))×100, where: • Sample: Signal obtained in the presence of each compound tested, • Max: Maximum signal in the absence of compound added, • Min: Minimum or background signal obtained in the absence of activation signal.
Relative IC50 (IC50 rel) were obtained from a dose response curve with 10 concentrations. Final IC50 rels are expressed as the geometric mean.
Relative IC50 values were estimated with Biost@t-SPEED v2.4 internal software based on SAS system using the 4-parameter logistic model according to Ratkovsky and Reedy (D. A. Ratkovsky, T. J. Reedy, Choosing near-linear parameters in the four parameters logistic model radioligands and related assays. Biometrics, 42 (1986), 575-582): Y=A+C/((1+exp(−B*(log(X)−M)))), where: • A: Lower asymptote (BOTTOM), • A+C: Upper asymptote (TOP), • M: the logarithm of the concentration estimated at the inflexion point (the logarithm of the relative IC50), • B: Slope at the inflexion point of the curve.
An IC50 of 0.014 µM was found for `Cc1cc(C)c(-c2ccc(N3CCO[C@H]4C[C@H](O)C[C@H]43)nn2)c(O)c1` (single isomer, unassigned) [Example 467] in this work.
An IC50 of 0.544 µM was found for `Cc1cc(N2CC[C@H]3CCN(C)C[C@H]32)nnc1-c1ccc(Cl)cc1O` (single isomer, unassigned) [Example 468] in this work.
An IC50 of 0.001 µM was found for `Cc1cc(N2CC[C@H]3CCN(C)C[C@H]32)nnc1-c1ccc(Cl)cc1O` (single isomer, unassigned) [Example 469] in this work.
An IC50 of 0.005 µM was found for `CCN1CC[C@@H]2CCN(c3ccc(-c4c(O)cccc4C(F)(F)F)nn3)[C@@H]2C1` (single isomer, unassigned) [Example 473] in this work.
An IC50 of less than 0.0003 µM was found for `CCN1CC[C@@H]2CCN(c3cc(C)c(-c4ccc(C)cc4O)nn3)[C@@H]2C1` (single isomer, unassigned) [Example 474] in this work.
An IC50 of 0.093 µM was found for `CCN1CC[C@H]2CCN(c3cc(C)c(-c4ccc(C)cc4O)nn3)[C@H]2C1` (single isomer, unassigned) [Example 475] in this work.
An IC50 of 0.209 µM was found for `CCc1cc(C)cc(O)c1-c1ccc(N2CC[C@H]3CCN(C)C[C@H]32)nn1` (single isomer, unassigned) [Example 476] in this work.
An IC50 of less than 0.0003 µM was found for `CCc1cc(C)cc(O)c1-c1ccc(N2CC[C@@H]3CCN(C)C[C@@H]32)nn1` (single isomer, unassigned) [Example 477] in this work.
An IC50 of 0.172 µM was found for `CN1CC[C@@H]2CCN(c3cc(C(F)F)c(-c4ccc(C(F)(F)F)cc4O)nn3)[C@@H]2C1` (single isomer, unassigned) [Example 482] in this work.
An IC50 of 0.001 µM was found for `CN1CC[C@H]2CCN(c3cc(C(F)F)c(-c4ccc(C(F)(F)F)cc4O)nn3)[C@H]2C1` (single isomer, unassigned) [Example 483] in this work.
An IC50 of 0.045 µM was found for `CCN1CC[C@@H]2CCN(c3cc(C(F)F)c(-c4ccc(C(F)(F)F)cc4O)nn3)[C@@H]2C1` (single isomer, unassigned) [Example 485] in this work.
An IC50 of less than 0.0003 µM was found for `CCN1CC[C@H]2CCN(c3cc(C(F)F)c(-c4ccc(C(F)(F)F)cc4O)nn3)[C@H]2C1` (single isomer, unassigned) [Example 486] in this work.
An IC50 of 0.001 µM was found for `Cc1cc(C)c(-c2cc(C(F)F)c(N3CC[C@H]4CCN(C)C[C@H]43)nn2)c(O)c1` (single isomer, unassigned) [Example 487] in this work.
An IC50 of 0.912 µM was found for `Cc1cc(C)c(-c2cc(C(F)F)c(N3CC[C@@H]4CCN(C)C[C@@H]43)nn2)c(O)c1` (single isomer, unassigned) [Example 488] in this work.
An IC50 of 0.232 µM was found for `CCN1CC[C@@H]2CCN(c3cc(C(F)F)c(-c4ccc(C)cc4O)nn3)[C@@H]2C1` (single isomer, unassigned) [Example 489] in this work.
An IC50 of 0.001 µM was found for `CCN1CC[C@H]2CCN(c3cc(C(F)F)c(-c4ccc(C)cc4O)nn3)[C@H]2C1` (single isomer, unassigned) [Example 490] in this work.
An IC50 of 0.185 µM was found for `CCc1cc(C(F)(F)F)cc(O)c1-c1ccc(N2CC[C@H]3CCN(C)C[C@H]32)nn1` (single isomer, unassigned) [Example 491] in this work.
An IC50 of 0.003 µM was found for `CCc1cc(C(F)(F)F)cc(O)c1-c1ccc(N2CC[C@@H]3CCN(C)C[C@@H]32)nn1` (single isomer, unassigned) [Example 492] in this work.
An IC50 of 0.171 µM was found for `CCc1cc(Cl)cc(O)c1-c1ccc(N2CC[C@H]3CCN(C)C[C@H]32)nn1` (single isomer, unassigned) [Example 493] in this work.
An IC50 of 0.001 µM was found for `CCc1cc(Cl)cc(O)c1-c1ccc(N2CC[C@@H]3CCN(C)C[C@@H]32)nn1` (single isomer, unassigned) [Example 494] in this work.
An IC50 of 0.546 µM was found for `CCN1CC[C@H]2CCN(c3ccc(-c4c(C)cc(Cl)cc4O)nn3)[C@H]2C1` (single isomer, unassigned) [Example 496] in this work.
An IC50 of 0.0004 µM was found for `CCN1CC[C@H]2CCN(c3ccc(-c4c(C)cc(Cl)cc4O)nn3)[C@H]2C1` (single isomer, unassigned) [Example 497] in this work.
An IC50 of 0.951 µM was found for `CCN1CC[C@H]2CCN(c3ccc(-c4c(C)cccc4O)nn3)[C@H]2C1` (single isomer, unassigned) [Example 498] in this work.
An IC50 of 0.003 µM was found for `CCN1CC[C@@H]2CCN(c3ccc(-c4c(C)cccc4O)nn3)[C@@H]2C1` (single isomer, unassigned) [Example 499] in this work.
An IC50 of 0.062 µM was found for `CN1CC[C@H]2CCN(c3cc(C(F)F)c(-c4ccc(Cl)cc4O)nn3)[C@H]2C1` (single isomer, unassigned) [Example 500] in this work.
An IC50 of less than 0.0003 µM was found for `CN1CC[C@@H]2CCN(c3cc(C(F)F)c(-c4ccc(Cl)cc4O)nn3)[C@@H]2C1` (single isomer, unassigned) [Example 501] in this work.
An IC50 of 0.347 µM was found for `Cc1cc(Cl)cc(O)c1-c1ccc(N2CC[C@@H]3CCN(C)C[C@@H]32)nn1` (single isomer, unassigned) [Example 502] in this work.
An IC50 of 0.0005 µM was found for `Cc1cc(Cl)cc(O)c1-c1ccc(N2CC[C@H]3CCN(C)C[C@H]32)nn1` (single isomer, unassigned) [Example 503] in this work.
An IC50 of 1.08 µM was found for `CCN1CC[C@H]2CCN(c3ccc(-c4c(C)cc(C)cc4O)nn3)[C@H]2C1` (single isomer, unassigned) [Example 504] in this work.
An IC50 of 0.0004 µM was found for `CCN1CC[C@@H]2CCN(c3ccc(-c4c(C)cc(C)cc4O)nn3)[C@@H]2C1` (single isomer, unassigned) [Example 505] in this work.
An IC50 of 0.135 µM was found for `Cc1ccc(-c2nnc(N3CC[C@@H]4CCN(C)C[C@@H]43)cc2C(F)F)c(O)c1` (single isomer, unassigned) [Example 506] in this work.
An IC50 of 0.001 µM was found for `Cc1ccc(-c2nnc(N3CC[C@H]4CCN(C)C[C@H]43)cc2C(F)F)c(O)c1` (single isomer, unassigned) [Example 507] in this work.
An IC50 of 0.28 µM was found for `CC(=O)N1CC[C@@H]2CCN(c3cc(C(F)F)c(-c4ccc(C(F)(F)F)cc4O)nn3)[C@@H]2C1` (single isomer, unassigned) [Example 510] in this work.
An IC50 of 0.571 µM was found for `CC(=O)N1CC[C@H]2CCN(c3cc(C(F)F)c(-c4ccc(C(F)(F)F)cc4O)nn3)[C@H]2C1` (single isomer, unassigned) [Example 511] in this work.
An IC50 of 0.276 µM was found for `CC(=O)N1CC[C@@H]2CCN(c3nnc(-c4c(C)cc(C)cc4O)cc3C(F)F)[C@@H]2C1` (single isomer, unassigned) [Example 512] in this work.
An IC50 of 1.77 µM was found for `CC(=O)N1CC[C@H]2CCN(c3nnc(-c4c(C)cc(C)cc4O)cc3C(F)F)[C@H]2C1` (single isomer, unassigned) [Example 513] in this work.
An IC50 of 1.92 µM was found for `Cc1cc(C)c(-c2ccc(N3CC4(CC[C@@H](O)C4)C3)nn2)c(O)c1` (stereo in doubt) [Example 94, 2-[6-(2-hydroxy-4,6-dimethyl-phenyl)pyridazin-3-yl]-2-azaspiro[3.4]octan-6-ol] in this work.
An IC50 of 0.188 µM was found for `Cc1cc(C(F)(F)F)cc(O)c1-c1ccc(N2CCO[C@H](CO)C2=O)nn1` (stereo in doubt) [Example 368, 2-(hydroxymethyl)-4-[6-[2-hydroxy-6-methyl-4-(trifluoromethyl)phenyl]pyridazin-3-yl]morpholin-3-one] in this work.
An IC50 of 1.96 µM was found for `Cc1cc(C)c(-c2ccc(N3CCC(C#N)CC3)nn2)c(O)c1` [Example 2, 1-[6-(2-hydroxy-4,6-dimethyl-phenyl)pyridazin-3-yl]piperidine-4-carbonitrile] in this work.
